IC50 data for 16 molecules are collected here from patent US10479780B2, “Aminopyrazole derivatives” (Chugai Seiyaku Kabushiki Kaisha, priority 2015, dated 2019).

Each structure is given as a SMILES string.

Common to all, as to format: biochemical
Test [1] addresses T1, human Yes1 enzyme (Homo sapiens, UniProt P07947).
T1 construct: made in house
Description: Yes1 enzyme inhibitory activity (time-resolved fluorometry, biotinylated peptide phosphorylation). The settings on record: biotinylated peptide phosphorylation, read-out: YES_IC50. In outline: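 Inhibition was expressed against a compound-free control to give IC50, using TR-FRET read-out (Eu-cryptate anti-pTyr antibody, streptavidin-XL665).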

For test [2], the target named is T2, human Lck enzyme (Homo sapiens, UniProt P06239).
T2 construct: purchased Carna Biosciences, Inc. 08-170
T2 sequence (P06239 whole entry): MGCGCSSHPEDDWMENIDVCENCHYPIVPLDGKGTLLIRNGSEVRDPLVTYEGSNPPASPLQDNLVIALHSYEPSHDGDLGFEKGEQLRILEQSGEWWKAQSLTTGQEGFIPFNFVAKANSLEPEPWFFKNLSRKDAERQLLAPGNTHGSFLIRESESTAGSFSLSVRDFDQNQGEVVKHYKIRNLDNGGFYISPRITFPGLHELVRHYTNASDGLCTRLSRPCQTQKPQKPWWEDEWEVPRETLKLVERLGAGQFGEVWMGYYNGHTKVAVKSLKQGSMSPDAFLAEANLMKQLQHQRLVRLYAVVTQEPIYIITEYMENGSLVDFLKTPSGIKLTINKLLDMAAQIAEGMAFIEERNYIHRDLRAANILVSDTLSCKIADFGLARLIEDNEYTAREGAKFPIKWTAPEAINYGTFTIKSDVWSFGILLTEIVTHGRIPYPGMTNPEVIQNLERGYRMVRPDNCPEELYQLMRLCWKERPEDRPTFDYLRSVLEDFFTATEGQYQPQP
Kind of test: Lck enzyme inhibitory activity (time-resolved fluorometry, biotinylated peptide phosphorylation). The settings on record: biotinylated peptide phosphorylation, read-out: LCK_IC50. The procedure, abridged: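 Readout pairs a europium cryptate-labelled anti-phosphotyrosine antibody with XL665-streptavidin, measured by time-resolved fluorescence. IC50 derived from percent inhibition against untreated controls.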

Test [3] has as its target T3, human Src enzyme (Homo sapiens, UniProt P12931).
T3 construct: purchased Carna Biosciences, Inc. 08-173
Description: Src enzyme inhibitory activity (time-resolved fluorometry, biotinylated peptide phosphorylation). As to conditions: biotinylated peptide phosphorylation, read-out: SRC_IC50. The procedure, abridged:
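Compounds were tested for blocking tyrosine phosphorylation of a biotinylated peptide substrate by recombinant human Src. Phosphorylated product was quantified by time-resolved fluorometry using europium cryptate and XL665 conjugates, and IC50 was calculated against the compound-free control.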

T1 sequence (P07947 whole entry): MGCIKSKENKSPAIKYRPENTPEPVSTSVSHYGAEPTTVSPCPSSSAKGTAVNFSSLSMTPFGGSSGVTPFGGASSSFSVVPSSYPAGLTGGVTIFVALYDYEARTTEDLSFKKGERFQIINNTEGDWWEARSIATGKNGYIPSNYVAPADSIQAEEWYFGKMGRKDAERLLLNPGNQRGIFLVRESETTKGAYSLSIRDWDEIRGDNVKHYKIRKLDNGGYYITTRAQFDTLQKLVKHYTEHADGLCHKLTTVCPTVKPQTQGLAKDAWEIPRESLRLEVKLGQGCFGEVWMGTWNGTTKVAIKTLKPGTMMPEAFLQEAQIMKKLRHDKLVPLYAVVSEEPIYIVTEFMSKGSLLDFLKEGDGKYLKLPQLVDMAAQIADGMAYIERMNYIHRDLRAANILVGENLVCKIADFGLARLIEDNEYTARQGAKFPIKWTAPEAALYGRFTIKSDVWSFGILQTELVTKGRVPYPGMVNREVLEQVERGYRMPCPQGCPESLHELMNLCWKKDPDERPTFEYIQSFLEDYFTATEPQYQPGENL
T3 sequence (P12931 whole entry): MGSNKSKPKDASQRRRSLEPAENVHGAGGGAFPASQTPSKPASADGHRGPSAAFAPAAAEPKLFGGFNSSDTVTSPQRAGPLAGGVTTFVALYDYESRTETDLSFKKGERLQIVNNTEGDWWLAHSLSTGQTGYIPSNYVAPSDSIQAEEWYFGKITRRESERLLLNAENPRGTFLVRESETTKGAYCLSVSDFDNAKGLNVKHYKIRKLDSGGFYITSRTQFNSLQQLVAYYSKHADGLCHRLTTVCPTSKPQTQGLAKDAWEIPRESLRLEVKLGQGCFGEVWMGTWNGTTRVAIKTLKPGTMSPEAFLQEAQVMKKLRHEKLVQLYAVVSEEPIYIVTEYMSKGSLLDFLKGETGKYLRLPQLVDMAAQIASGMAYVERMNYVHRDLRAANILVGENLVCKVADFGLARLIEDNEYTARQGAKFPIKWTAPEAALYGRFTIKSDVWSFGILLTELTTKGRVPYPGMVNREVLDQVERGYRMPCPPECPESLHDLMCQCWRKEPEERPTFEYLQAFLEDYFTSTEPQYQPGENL

Turning to `Cc1cc(Oc2c(F)cccc2F)ncc1-n1ncc(C(=O)c2cc3cc(F)c(NS(=O)(=O)c4cccc(Cl)n4)cc3[nH]2)c1N` [Example 5-1-528, N-[2-[5-amino-1-[6-(2,6-difluorophenoxy)-4-methylpyridin-3-yl]pyrazole-4-carbonyl]-5-fluoro-1H-indol-6-yl]-6-chloropyridine-2-sulfonamide], the IC50 in test [1] came to 8.8 nM; in test [2], 230 nM; in test [3], 750 nM.
Turning to `Cc1cc(Oc2ccccc2F)ncc1-n1ncc(C(=O)c2cc3cc(F)c(NS(=O)(=O)c4cccc(Cl)n4)cc3[nH]2)c1N` [Example 5-1-529, N-[2-[5-amino-1-[6-(2-fluorophenoxy)-4-methylpyridin-3-yl]pyrazole-4-carbonyl]-5-fluoro-1H-indol-6-yl]-6-chloropyridine-2-sulfonamide], the IC50 in test [1] was determined as 8.6 nM; in test [2], 260 nM; in test [3], 840 nM.
For `Cc1cccc(S(=O)(=O)Nc2cc3[nH]c(C(=O)c4cnn(-c5ccc(Oc6ccccc6F)cc5C)c4N)cc3cc2C)n1` [Example 5-1-530, N-[2-[5-amino-1-[4-(2-fluorophenoxy)-2-methylphenyl]pyrazole-4-carbonyl]-5-methyl-1H-indol-6-yl]-6-melhylpyridine-2-sulfonamide], in that order: 2.6 nM, 34 nM and 200 nM.
For `Cc1cccc(S(=O)(=O)Nc2cc3[nH]c(C(=O)c4cnn(-c5cnc(Oc6c(F)cccc6F)cc5C)c4N)cc3cc2C)n1` [Example 5-1-531, N-[2-[5-amino-1-[6-(2,6-difluorophenoxy)-4-melhylpyridin-3-yl]pyrazole-4-carbonyl]-5-methyl-1H-indol-6-yl]-6-methylpyridine-2-sulfonamide], the IC50 in test [1] was determined as 4.9 nM; in test [2], 110 nM; in test [3], 480 nM.
For the molecule `Cc1cccc(S(=O)(=O)Nc2cc3[nH]c(C(=O)c4cnn(-c5ccc(Oc6ccccc6F)cc5C)c4N)cc3cc2F)n1` [Example 5-1-532, N-[2-[5-amino-1-[4-(2-fluorophenoxy)-2-methylphenyl]pyrazole-4-carbonyl]-5-fluoro-1H-indol-6-yl]-6-methylpyridine-2-sulfonamide], the IC50 in test [1] stood at 1.6 nM; in test [2], 38 nM; in test [3], 290 nM.
As to `Cc1cccc(S(=O)(=O)Nc2cc3[nH]c(C(=O)c4cnn(-c5cnc(Oc6c(F)cccc6F)cc5C)c4N)cc3cc2F)n1` [Example 5-1-533, N-[2-[5-amino-1-[6-(2,6-difluorophenoxy)-4-methylpyridin-3-yl]pyrazole-4-carbonyl]-5-fluoro-1H-indol-6-yl]-6-methylpyridine-2-sulfonamide], the IC50 in test [1] was 4.7 nM; in test [2], 120 nM; in test [3], 510 nM.
In the case of `Cc1cccc(S(=O)(=O)Nc2cc3[nH]c(C(=O)c4cnn(-c5cnc(Oc6ccccc6F)cc5C)c4N)cc3cc2F)n1` [Example 5-1-534, N-[2-[5-amino-1-[6-(2-fluorophenoxy)-4-methylpyridin-3-yl]pyrazole-4-carbonyl]-5-fluoro-1H-indol-6-yl]-6-methylpyridine-2-sulfonamide], the IC50 came to 5.1 nM in test [1], 170 nM in test [2] and 640 nM in test [3].
In the case of `Cc1cc2cc(C(=O)c3cnn(-c4ccc(Oc5ccccc5F)cc4C)c3N)[nH]c2cc1NS(=O)(=O)c1cccc(C#N)n1` [Example 5-1-535, N-[2-[5-amino-1-[4-(2-fluorophenoxy)-2-methylphenyl]pyrazole-4-carbonyl]-5-methyl-1H-indol-6-yl]-6-cyanopyridine-2-sulfonamide], the IC50 in test [1] was 4.1 nM; in test [2], 78 nM; in test [3], 390 nM.
As for `Cc1cc2cc(C(=O)c3cnn(-c4cnc(Oc5c(F)cccc5F)cc4C)c3N)[nH]c2cc1NS(=O)(=O)c1cccc(C#N)n1` [Example 5-1-536, N-[2-[5-amino-1-[6-(2,6-difluorophenoxy)-4-methylpyridin-3-yl]pyrazole-4-carbonyl]-5-methyl-1H-indol-6-yl]-6-cyanopyridine-2-sulfonamide], the IC50 in test [1] was found to be 9.2 nM; in test [2], 92 nM; in test [3], 560 nM.
With `Cc1cc(Oc2ccccc2F)ccc1-n1ncc(C(=O)c2cc3cc(F)c(NS(=O)(=O)c4cccc(C#N)n4)cc3[nH]2)c1N` [Example 5-1-537, N-[2-[5-amino-1-[4-(2-fluorophenoxy)-2-methylphenyl]pyrazole-4-carbonyl]-5-fluoro-1H-indol-6-yl]-6-cyanopyridine-2-sulfonamide], the IC50 in test [1] is 3 nM; in test [2], 57 nM; in test [3], 320 nM.
Taken in the same sequence, the figures for `Cc1cc(Oc2c(F)cccc2F)ncc1-n1ncc(C(=O)c2cc3cc(F)c(NS(=O)(=O)c4cccc(C#N)n4)cc3[nH]2)c1N` [Example 5-1-538, N-[2-[5-amino-1-[6-(2,6-difluorophenoxy)-4-methylpyridin-3-yl]pyrazole-4-carbonyl]-5-fluoro-1H-indol-6-yl]-6-cyanopyridine-2-sulfonamide] were 9.6 nM, 140 nM and 680 nM.
For `Cc1cc(Oc2ccccc2F)ncc1-n1ncc(C(=O)c2cc3cc(F)c(NS(=O)(=O)c4cccc(C#N)n4)cc3[nH]2)c1N` [Example 5-1-539, N-[2-[5-amino-1-[6-(2-fluorophenoxy)-4-methylpyridin-3-yl]pyrazole-4-carbonyl]-5-fluoro-1H-indol-6-yl]-6-cyanopyridine-2-sulfonamide], in that order: 11 nM, 220 nM and 800 nM.
For `Cc1cc2cc(C(=O)c3cnn(-c4ccc(Oc5ccccc5F)cc4C)c3N)[nH]c2cc1NS(=O)(=O)c1cncc(Cl)c1` [Example 5-1-540, N-[2-[5-amino-1-[4-(2-fluorophenoxy)-2-methylphenyl]pyrazole-4-carbonyl]-5-methyl-1H-indol-6-yl]-5-chloropyridine-3-sulfonamide], in that order: 3.5 nM, 96 nM and 350 nM.
For `Cc1cc2cc(C(=O)c3cnn(-c4cnc(Oc5c(F)cccc5F)cc4C)c3N)[nH]c2cc1NS(=O)(=O)c1cncc(Cl)c1` [Example 5-1-541, N-[2-[5-amino-1-[6-(2,6-difluorophenoxy)-4-methylpyridin-3-yl]pyrazole-4-carbonyl]-5-methyl-1H-indol-6-yl]-5-chloropyridine-3-sulfonamide], the figures for the IC50 in test [1], in test [2] and in test [3] were 12 nM, 280 nM and 660 nM, respectively.
Taken in the same sequence, the figures for `Cc1cc(Oc2ccccc2F)ccc1-n1ncc(C(=O)c2cc3cc(F)c(NS(=O)(=O)c4cncc(Cl)c4)cc3[nH]2)c1N` [Example 5-1-542, N-[2-[5-amino-1-[4-(2-fluorophenoxy)-2-methylphenyl]pyrazole-4-carbonyl]-5-fluoro-1H-indol-6-yl]-5-chloropyridine-3-sulfonamide] were 3.6 nM, 180 nM and 430 nM.
`Cc1cc(Oc2c(F)cccc2F)ncc1-n1ncc(C(=O)c2cc3cc(F)c(NS(=O)(=O)c4cncc(Cl)c4)cc3[nH]2)c1N` [Example 5-1-543, N-[2-[5-amino-1-[6-(2,6-difluorophenoxy)-4-methylpyridin-3-yl]pyrazole-4-carbonyl]-5-fluoro-1H-indol-6-yl]-5-chloropyridine-3-sulfonamide]: the IC50 stood at 9.8 nM in test [1], 360 nM in test [2] and 640 nM in test [3].
